Test results from paper PMC4628998 (BioMed Research International, 2015).

Target: T1, CK2α (Zea mays) (Zea mays, UniProt P28523)
T1 construct: gene ACK2; catalytic subunit CK2α alone
Assay: radiometric peptide phosphorylation assay, residual activity at […]
Assay type: biochemical

T1 sequence (P28523 whole entry): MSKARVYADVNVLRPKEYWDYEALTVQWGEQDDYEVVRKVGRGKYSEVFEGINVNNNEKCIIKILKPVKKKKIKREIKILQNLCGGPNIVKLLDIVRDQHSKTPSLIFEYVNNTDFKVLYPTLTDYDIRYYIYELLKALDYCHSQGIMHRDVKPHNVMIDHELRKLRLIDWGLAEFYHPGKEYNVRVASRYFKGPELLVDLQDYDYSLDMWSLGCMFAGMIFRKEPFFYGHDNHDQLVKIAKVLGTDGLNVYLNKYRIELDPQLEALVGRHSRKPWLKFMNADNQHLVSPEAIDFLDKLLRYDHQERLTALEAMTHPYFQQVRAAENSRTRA

Compound: O=C1c2ccc(O)c(O)c2C(=O)c2c(O)ccc(O)c21 [quinalizarin, 1,2,5,8-tetrahydroxyanthraquinone]
- activity at 1 µM: 33%
